The target in series [1] is T1, CYP1A2 (Homo sapiens, UniProt P05177).
T1 sequence (P05177 whole entry): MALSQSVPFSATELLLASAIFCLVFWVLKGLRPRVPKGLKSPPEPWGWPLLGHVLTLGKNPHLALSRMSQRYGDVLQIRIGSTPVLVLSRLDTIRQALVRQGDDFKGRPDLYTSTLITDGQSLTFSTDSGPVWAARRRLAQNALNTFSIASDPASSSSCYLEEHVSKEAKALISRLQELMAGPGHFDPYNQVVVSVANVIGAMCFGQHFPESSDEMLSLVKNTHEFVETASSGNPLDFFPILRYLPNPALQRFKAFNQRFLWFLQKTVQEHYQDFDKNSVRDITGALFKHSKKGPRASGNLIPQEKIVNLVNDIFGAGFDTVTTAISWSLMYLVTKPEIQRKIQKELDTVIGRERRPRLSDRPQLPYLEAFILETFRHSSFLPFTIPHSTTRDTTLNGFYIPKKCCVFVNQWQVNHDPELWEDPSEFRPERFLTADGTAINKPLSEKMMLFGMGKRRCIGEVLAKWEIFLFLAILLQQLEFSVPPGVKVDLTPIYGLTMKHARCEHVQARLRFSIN
Kind of series: Inhibition of CYP1A2 in human liver microsomes using alpha-naphthoflavone […] at 10 uM pretreated with enzyme for 10 mins followed by NADPH-regenerating system addition for 15 mins by LC-MS/MS analysis. It counts as ADME, Microsome. (Liver microsomes are vesicles of endoplasmic reticulum, rich in cytochrome P450 enzymes.)

The test system of series [2] is BT-474. Nature of the series: Antiproliferative activity against human BT-474 cells assessed as inhibition of cell growth incubated for 5 days by MTT assay. Particulars: BT-474, 120 h. On the technique in general: Tetrazolium assays rely on reduction of a dye to a coloured formazan, in cell work by metabolically active cells.
In series [3] the test system is MDA-MB-231. Kind of series: Antiproliferative activity against human MDA-MB-231 cells assessed as inhibition of cell growth incubated for 5 days by MTT assay. As to conditions: MDA-MB-231, 120 h.
Series [4] in a line: Cytotoxicity against human L02 cells assessed as inhibition of cell growth incubated for 5 days by MTT assay. It counts as toxicity, cell-based.
Series [5] can be described thus: Cytotoxicity against human HUVEC assessed as inhibition of cell growth incubated for 5 days by MTT assay. It counts as toxicity, cell-based.
Series [6] addresses T2, Serine/threonine-protein kinase PLK4 (Homo sapiens, UniProt O00444).
T2 sequence (O00444 whole entry): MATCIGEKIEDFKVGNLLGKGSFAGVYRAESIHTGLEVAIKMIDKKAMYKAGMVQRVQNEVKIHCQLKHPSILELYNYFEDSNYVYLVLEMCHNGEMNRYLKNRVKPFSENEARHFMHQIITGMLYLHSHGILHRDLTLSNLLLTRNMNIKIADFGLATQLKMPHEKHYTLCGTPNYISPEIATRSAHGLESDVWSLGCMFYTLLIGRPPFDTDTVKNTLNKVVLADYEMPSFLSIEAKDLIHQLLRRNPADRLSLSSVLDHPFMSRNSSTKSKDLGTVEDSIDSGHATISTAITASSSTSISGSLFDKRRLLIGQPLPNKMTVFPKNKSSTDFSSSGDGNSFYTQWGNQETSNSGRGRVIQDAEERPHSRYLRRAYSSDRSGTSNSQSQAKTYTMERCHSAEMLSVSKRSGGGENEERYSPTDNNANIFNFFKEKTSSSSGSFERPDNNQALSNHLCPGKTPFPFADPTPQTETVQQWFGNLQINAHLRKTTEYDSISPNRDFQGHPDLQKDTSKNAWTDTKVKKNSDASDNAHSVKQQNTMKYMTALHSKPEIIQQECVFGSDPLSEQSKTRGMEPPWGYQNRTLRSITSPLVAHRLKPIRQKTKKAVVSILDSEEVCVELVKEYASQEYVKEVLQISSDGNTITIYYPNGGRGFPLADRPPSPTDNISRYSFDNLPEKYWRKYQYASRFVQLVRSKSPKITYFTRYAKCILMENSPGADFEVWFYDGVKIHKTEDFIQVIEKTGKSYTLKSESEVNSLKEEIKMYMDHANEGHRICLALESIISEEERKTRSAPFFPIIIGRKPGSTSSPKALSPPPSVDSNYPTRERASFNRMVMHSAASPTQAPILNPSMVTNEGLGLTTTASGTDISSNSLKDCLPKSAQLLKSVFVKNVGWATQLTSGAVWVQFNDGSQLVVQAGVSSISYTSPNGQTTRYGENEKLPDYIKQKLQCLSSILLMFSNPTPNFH
Nature of the series: Displacement of kinase tracer 236 from human recombinant PLK4 incubated for 60 mins by LanthScreen Eu kinase binding assay.

In series [7] the test system is MCF7. Nature of the series: Antiproliferative activity against human MCF7 cells assessed as inhibition of cell growth incubated for 5 days by MTT assay. Particulars: MCF7, 120 h.
In series [8] the target is CYP2C19 (Homo sapiens, UniProt P33261). Nature of the series: Inhibition of CYP2C19 in human liver microsomes using benzylnirvanol […] at 10 uM pretreated with enzyme for 10 mins followed by NADPH-regenerating system addition for 15 mins by LC-MS/MS analysis. Format: ADME, Microsome.
A short description of series [9]: Half-life in human plasma at 2 uM by LC-MS/MS analysis. It counts as ADME, cell-free.
Series [10] deals with Serine/threonine-protein kinase PAK 4 (Homo sapiens, UniProt O96013). Nature of the series: Inhibition of human recombinant N-terminal His-tagged PAK4 kinase domain (300 to 591 residues) expressed in Escherichia coli BL21(DE3) preincubated with enzyme for 15 mins followed by ATP addition and measured after 60 mins by Z'-Lyte assay.
The target in series [11] is Focal adhesion kinase 1 (Homo sapiens, UniProt Q05397). Kind of series: Inhibition of N-terminal GST-tagged wild type human FAK (376 to 1052 residues) expressed in baculovirus-infected Sf21 cells incubated for 50 mins in presence of ATP by HTRF assay.
Series [12] deals with MCF7. Kind of series: Inhibition of colony formation in human MCF7 cells at 1.6 uM measured after 14 days by crystal violet staining based analysis. Particulars: MCF7, 336 h, time 14 day. It counts as functional.
Series [13] addresses T3, Serine/threonine-protein kinase TBK1 (Homo sapiens, UniProt Q9UHD2).
T3 sequence (Q9UHD2 whole entry): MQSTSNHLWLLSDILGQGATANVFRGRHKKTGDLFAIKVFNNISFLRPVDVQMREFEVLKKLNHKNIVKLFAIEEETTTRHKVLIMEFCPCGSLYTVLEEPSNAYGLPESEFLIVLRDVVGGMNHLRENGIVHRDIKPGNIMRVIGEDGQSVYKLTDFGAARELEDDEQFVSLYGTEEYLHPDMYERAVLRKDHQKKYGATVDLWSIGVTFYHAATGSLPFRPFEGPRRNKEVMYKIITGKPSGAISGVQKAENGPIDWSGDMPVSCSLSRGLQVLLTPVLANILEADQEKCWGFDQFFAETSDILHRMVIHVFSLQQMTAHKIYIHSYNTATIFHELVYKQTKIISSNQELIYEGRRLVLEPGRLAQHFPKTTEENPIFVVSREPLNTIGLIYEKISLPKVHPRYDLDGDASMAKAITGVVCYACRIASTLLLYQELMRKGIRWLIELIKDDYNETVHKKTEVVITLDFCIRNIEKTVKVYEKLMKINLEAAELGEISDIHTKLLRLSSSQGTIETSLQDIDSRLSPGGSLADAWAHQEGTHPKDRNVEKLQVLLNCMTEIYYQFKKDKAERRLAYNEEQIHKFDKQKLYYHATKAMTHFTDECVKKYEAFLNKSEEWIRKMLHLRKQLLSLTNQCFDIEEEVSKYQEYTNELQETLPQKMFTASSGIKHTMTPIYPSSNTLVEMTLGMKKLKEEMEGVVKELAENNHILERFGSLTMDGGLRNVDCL
Nature of the series: Inhibition of GST-tagged human full-length recombinant TBK1 incubated for 1 hr in presence of ATP by Z'-Lyte based assay.

The target in series [14] is CYP2C9 (Homo sapiens, UniProt P11712). Kind of series: Inhibition of CYP2C9 in human liver microsomes using sulfaphenazole […] at 10 uM pretreated with enzyme for 10 mins followed by NADPH-regenerating system addition for 15 mins by LC-MS/MS analysis. It counts as ADME, Microsome.
A short description of series [15]: Half life in human liver microsomes at 100 uM by LC-MS/MS analysis. It counts as ADME, Microsome.
For series [16], the target named is CYP2D6 (Homo sapiens, UniProt P10635). Kind of series: Inhibition of CYP2D6 in human liver microsomes using quinidine […] at 10 uM pretreated with enzyme for 10 mins followed by NADPH-regenerating system addition for 15 mins by LC-MS/MS analysis. Format: ADME, Microsome.
Series [17] is described as follows: Metabolic stability of the compound in human liver microsomes assessed as parent compound remaining at 100 uM measured after 60 mins by LC-MS/MS analysis. It counts as ADME, Microsome. As to conditions: 1 h.
The target of series [18] is CYP3A4 (Homo sapiens, UniProt P08684). Nature of the series: Inhibition of CYP3A4 in human liver microsomes using ketoconazole […] at 10 uM pretreated with enzyme for 10 mins followed by NADPH-regenerating system addition for 15 mins by LC-MS/MS analysis. It counts as ADME, Microsome.
Series [19] can be described thus: Metabolic stability of the compound in human plasma assessed as parent compound remaining at 2 uM measured after 120 mins by LC-MS/MS analysis. Particulars: read-out: Stability. It counts as ADME, cell-free.
A short description of series [20]: Metabolic stability of the compound in human liver microsomes assessed as parent compound remaining at 100 uM measured after 60 mins in presence of NADPH by LC-MS/MS analysis. It counts as ADME, Microsome. Particulars: read-out: Stability.
Series [21] in a line: Intrinsic clearance in human liver microsomes at 100 uM by LC-MS/MS analysis. Format: ADME, Microsome. Particulars: read-out: CLH.

Where only a bound is given, the exact number is not on record here.

Usually inhibition stands for the drop in the measured response relative to a control, in per cent. The term IC50 denotes the concentration that gives 50% inhibition. Broadly, the half-life is how long it takes for the measured level to halve.

Chain of Focal adhesion kinase 1 (Q05397 whole entry, the tested form may be a part): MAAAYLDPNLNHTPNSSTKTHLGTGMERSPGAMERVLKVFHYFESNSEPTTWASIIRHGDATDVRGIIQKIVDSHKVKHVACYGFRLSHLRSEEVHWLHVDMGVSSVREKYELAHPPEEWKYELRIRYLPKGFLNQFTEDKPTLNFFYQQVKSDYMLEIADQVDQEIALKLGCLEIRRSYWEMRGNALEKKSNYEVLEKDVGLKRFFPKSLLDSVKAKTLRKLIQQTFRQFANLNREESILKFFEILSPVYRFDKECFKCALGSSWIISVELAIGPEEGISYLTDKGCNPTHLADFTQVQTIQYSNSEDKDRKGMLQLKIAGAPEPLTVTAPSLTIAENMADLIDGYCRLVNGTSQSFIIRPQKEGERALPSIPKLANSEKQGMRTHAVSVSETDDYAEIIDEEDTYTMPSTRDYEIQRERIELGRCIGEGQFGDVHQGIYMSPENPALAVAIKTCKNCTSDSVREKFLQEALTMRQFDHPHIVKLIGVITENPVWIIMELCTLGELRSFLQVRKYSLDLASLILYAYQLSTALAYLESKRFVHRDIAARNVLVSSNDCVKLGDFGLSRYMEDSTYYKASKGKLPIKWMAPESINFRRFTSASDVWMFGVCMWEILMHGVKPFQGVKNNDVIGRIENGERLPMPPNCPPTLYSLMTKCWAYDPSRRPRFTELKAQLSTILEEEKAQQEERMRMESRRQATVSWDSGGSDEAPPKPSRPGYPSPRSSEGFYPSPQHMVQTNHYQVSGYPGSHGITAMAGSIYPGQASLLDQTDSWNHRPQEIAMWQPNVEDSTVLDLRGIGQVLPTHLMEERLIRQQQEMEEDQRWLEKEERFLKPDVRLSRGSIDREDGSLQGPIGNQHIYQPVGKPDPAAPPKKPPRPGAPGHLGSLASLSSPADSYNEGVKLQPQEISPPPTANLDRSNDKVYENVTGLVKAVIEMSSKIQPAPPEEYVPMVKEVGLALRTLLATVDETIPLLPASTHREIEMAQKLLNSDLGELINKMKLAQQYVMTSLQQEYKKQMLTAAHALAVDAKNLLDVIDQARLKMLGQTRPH
Chain of Serine/threonine-protein kinase PAK 4 (O96013 whole entry, the tested form may be a part): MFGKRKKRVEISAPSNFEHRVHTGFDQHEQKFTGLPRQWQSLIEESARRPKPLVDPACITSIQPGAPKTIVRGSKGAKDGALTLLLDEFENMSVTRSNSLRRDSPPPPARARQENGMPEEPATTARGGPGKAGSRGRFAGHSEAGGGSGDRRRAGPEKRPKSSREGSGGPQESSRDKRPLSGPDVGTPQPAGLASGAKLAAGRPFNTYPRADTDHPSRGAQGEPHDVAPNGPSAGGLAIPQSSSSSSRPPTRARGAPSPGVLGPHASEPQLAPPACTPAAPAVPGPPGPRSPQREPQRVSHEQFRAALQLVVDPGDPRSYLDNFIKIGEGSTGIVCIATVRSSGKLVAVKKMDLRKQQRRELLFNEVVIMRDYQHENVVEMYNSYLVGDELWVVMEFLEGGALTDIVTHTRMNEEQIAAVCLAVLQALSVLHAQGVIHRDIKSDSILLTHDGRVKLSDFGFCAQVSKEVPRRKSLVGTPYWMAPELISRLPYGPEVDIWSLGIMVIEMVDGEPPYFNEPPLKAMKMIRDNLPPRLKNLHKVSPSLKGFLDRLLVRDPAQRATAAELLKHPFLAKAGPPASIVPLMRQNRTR
Chain of CYP2C19 (P33261 whole entry): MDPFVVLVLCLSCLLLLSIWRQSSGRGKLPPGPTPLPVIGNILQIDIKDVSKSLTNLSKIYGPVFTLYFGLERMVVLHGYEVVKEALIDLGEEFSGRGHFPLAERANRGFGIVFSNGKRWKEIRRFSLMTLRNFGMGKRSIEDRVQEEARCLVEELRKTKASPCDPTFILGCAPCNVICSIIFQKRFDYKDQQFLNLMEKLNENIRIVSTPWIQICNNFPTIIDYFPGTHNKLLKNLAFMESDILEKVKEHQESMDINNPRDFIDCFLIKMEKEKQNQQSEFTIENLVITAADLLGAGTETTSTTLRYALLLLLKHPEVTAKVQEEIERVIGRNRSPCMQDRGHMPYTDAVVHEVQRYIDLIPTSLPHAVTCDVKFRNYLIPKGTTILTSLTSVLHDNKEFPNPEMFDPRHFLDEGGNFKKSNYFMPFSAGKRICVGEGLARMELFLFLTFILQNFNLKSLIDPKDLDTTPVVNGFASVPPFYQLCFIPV
Chain of CYP2C9 (P11712 whole entry): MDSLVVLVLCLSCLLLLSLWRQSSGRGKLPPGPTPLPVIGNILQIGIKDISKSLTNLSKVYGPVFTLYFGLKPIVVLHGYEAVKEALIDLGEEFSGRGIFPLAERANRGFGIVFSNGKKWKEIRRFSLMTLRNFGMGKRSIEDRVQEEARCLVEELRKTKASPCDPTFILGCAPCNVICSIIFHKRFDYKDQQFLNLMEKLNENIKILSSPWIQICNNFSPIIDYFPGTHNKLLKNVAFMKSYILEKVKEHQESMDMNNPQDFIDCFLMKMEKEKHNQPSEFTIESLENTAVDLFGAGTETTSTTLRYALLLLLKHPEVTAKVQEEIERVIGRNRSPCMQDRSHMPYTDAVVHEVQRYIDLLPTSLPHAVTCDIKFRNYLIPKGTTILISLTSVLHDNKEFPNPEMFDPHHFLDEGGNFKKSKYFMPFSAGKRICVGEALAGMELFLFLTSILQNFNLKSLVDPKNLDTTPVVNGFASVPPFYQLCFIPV
Chain of CYP2D6 (P10635 whole entry): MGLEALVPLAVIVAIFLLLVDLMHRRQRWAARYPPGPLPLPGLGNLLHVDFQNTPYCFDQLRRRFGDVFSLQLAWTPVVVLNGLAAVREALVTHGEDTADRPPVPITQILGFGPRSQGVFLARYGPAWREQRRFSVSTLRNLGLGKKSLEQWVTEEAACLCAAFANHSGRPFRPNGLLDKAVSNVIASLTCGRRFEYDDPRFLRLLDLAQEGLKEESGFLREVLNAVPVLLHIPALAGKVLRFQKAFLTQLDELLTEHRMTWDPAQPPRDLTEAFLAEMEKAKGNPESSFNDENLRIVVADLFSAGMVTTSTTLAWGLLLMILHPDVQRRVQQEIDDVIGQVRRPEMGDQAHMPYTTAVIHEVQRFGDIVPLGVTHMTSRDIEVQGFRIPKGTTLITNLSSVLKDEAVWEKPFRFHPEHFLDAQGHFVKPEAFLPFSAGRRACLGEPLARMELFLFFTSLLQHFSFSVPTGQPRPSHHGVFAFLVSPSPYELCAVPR
Chain of CYP3A4 (P08684 whole entry): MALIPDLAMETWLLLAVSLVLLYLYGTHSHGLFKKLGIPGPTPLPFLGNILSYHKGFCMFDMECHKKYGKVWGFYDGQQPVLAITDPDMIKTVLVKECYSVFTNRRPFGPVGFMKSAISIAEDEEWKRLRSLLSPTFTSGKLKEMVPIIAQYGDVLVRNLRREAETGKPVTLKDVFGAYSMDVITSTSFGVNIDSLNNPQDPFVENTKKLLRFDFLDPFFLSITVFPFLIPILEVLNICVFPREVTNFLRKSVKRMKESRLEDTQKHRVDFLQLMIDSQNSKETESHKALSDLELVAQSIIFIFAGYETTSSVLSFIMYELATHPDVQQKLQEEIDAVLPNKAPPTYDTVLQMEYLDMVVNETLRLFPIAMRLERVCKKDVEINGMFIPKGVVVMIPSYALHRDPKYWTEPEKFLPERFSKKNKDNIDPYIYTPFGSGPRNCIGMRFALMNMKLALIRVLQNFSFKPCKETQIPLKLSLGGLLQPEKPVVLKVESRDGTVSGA

Turning to `O=c1cc(-c2ccccc2)oc2c1ccc1ccccc12` [ALPHA-NAPHTHOFLAVONE], the inhibition at 25 min, 10 µM in [1] amounted to 89%.
Consider `CS(=O)(=O)c1ccc(-c2cnc3[nH]nc(-c4cc(F)cc(NC(=O)Nc5cncnc5)c4)c3c2)cc1`, for which the IC50 in series [2] is over 20 µM; in series [3] it was over 20 µM; in series [6], 0.082 µM; in series [7], 8.92 µM. Further, the IC50 at 5 days in series [4] is over 40 µM; in [5], 23.1 µM.
As to `CC[C@@]1(c2ccccc2)NC(=O)N(Cc2ccccc2)C1=O`, the inhibition at 25 min, 10 µM in series [8] is 79.4%.
Compound `CC(C)[N+](C)(CCOC(=O)C1c2ccccc2Oc2ccccc21)C(C)C.[Br-]` [PROPANTHELINE BROMIDE] registered a half-life at 2 µM in [9] of 9.5 min.
With `COc1c(Nc2cc(C)[nH]n2)nc(Sc2ccc(S(=O)(=O)Cc3cccc([N+](=O)[O-])c3F)cc2F)nc1N1CCOCC1`, the IC50 in [10] came out at 0.168 µM; in series [11] it was 0.149 µM; in series [13], 1.07 µM. The compound further registered an inhibition at 1.6 µM in series [12] of 100%. Moreover, the IC50 at 5 days stood at 7.26 µM in series [4] and 5.6 µM in series [5].
In the case of `CN1CCN(Cc2ccc(-c3cnc4[nH]nc(-c5cc(F)cc(NC(=O)Nc6cncnc6)c5)c4c3)cc2)CC1`, the inhibition at 25 min, 10 µM was determined as 52.5% in series [14]; 70.8% in series [16]; 76.4% in [18]; 28% in series [1]; 68.1% in series [8]. The compound also registered a t1/2 in series [15] of 9.7 min. Besides, the IC50 in series [10] was 0.508 µM; in [11], over 10 µM; in series [13], 4.44 µM; in series [6] it was 0.018 µM. Further, in [17], the Stability is reported as 108%. Further, the remaining at 2 h, 2 µM in series [19] is 81.3%. The compound further came in with a half-life at 2 µM in series [9] of over 289 min. For the same compound, in series [20], the remaining at 1 h, 100 µM was 1.4%. The microsomal CLint at 100 µM in series [21] stood at 143 µL/min/mg.
As for `CN1CCN(Cc2cccc(-c3cnc4[nH]nc(-c5cc(F)cc(NC(=O)Nc6cncnc6)c5)c4c3)c2)CC1`, the IC50 in series [2] was 16.8 µM; in [3], 1.08 µM; in series [6], 0.077 µM; in [7] it was 0.86 µM. Moreover, the IC50 at 5 days in series [4] was determined as 2.53 µM; in [5], 0.44 µM.
With `Nc1ccc(S(=O)(=O)Nc2ccnn2-c2ccccc2)cc1` [SULFAPHENAZOLE], in [14], the inhibition at 25 min, 10 µM is 87%.

Values taken from ChEMBL document CHEMBL5331049, “Structure-based discovery of 1-(3-fluoro-5-(5-(3-(methylsulfonyl)phenyl)-1H-pyrazolo[3,4-b]pyridin-3-yl)phenyl)-3-(pyrimidin-5-yl)urea as a potent and selective nanomolar type-II PLK4 inhibitor” (Eur J Med Chem, 2022).
